In patent US8791116B2, “Myosin light chain kinase inhibitor compounds, compositions and related methods of use” (Northwestern University, priority 2006, dated 2014):
Entries after “also recorded” stand apart in the source; their conditions may differ.

Columns and labels:
[1] = target: MLCK (Homo sapiens, UniProt Q15746); test: MLCK inhibitory activity screen (32P-ATP peptide substrate phosphorylation); type: biochemical; conditions: for IC50: 20 μM peptide substrate, 200 μM ATP, 20 min at 25° C., read-out: MLCK (μM), in vitro inhibition of kinases; for selectivity for MLCK over related protein kinases (in words): compared to DAPK, PKC and PKA
Protocol: (§1) MLCK inhibitory activity screens were done by incubation with 20 μM peptide substrate ([…]), 200 μM ATP and [^32P]-ATP (2.5 μCi per reaction) in assay buffer (50 mM HEPES, pH 7.5 with KOH, 5 mM MgCl2, 0.15 M KCl, 0.015 M NaCl, 1 mM DTT) with 0.1 mM CaCl2 and 1 μM calmodulin (New England Biolabs, MA). [T. J. Lukas, S. Mirzoeva, U. Slomczynska and D. M. Watterson, J. Med. Chem. 42 (1999) 910-9.] Reactions were initiated by addition of MLCK protein and incubated for 20 min at 25° C. Reactions were spotted onto P-81 paper (Whatman, Clifton, N.J.), washed with 75 mM H3PO4 and 95% EtOH, and quantified by scintillation counting in EcoScintO (National Diagnostics, Atlanta, Ga.). Testing of compounds for kinase inhibitory activity against the structurally and functionally related kinases death-associated protein kinase (DAPK) and the signal transduction pathway relevant kinases protein kinase A (PKA) and protein kinase C (PKC) was performed as described by using the corresponding peptide substrates and assay conditions. [[…]. Guo, […]. Bourguignon, […]. Van Eldik and D. M. Watterson, J. Med. Chem 45 (2002) 563-6; A. M. Schumacher, […] and D. M. Watterson, Biochemistry 43 (2004) 8116-24; […]. Schumacher and D. M. Watterson, Pharmacol Ther 93 (2002) 217-24; […]. Schumacher, C. Weiss, M. Egli and D. M. Watterson, J. Biol. Chem. 276 (2001) 38956-65; D. M. Watterson, S. Mirzoeva, L. Guo, […]. Bourguignon, […] and L. J. Van Eldik, Neurochem Int. 39 (2001) 459-68.]

[2] = target: protein kinase A (PKA) (Homo sapiens, UniProt P17612); test: Kinase inhibitory activity against protein kinase A; type: biochemical; conditions: read-out: PKA (μM), in vitro inhibition of kinases
Protocol: as §1

[3] = target: death-associated protein kinase (DAPK) (Homo sapiens, UniProt P53355); test: Kinase inhibitory activity against death-associated protein kinase; type: biochemical; conditions: read-out: DAPK (μM), in vitro inhibition of kinases
Protocol: as §1

[4] = target: protein kinase C (PKC); test: Kinase inhibitory activity against protein kinase C; type: biochemical; conditions: read-out: PKC (μM), in vitro inhibition of kinases
Protocol: MLCK inhibitory activity screens were done by incubation with 20 μM peptide substrate (KKRPQRATSNVFAM-NH2), 200 μM ATP and [^32P]-ATP (2.5 μCi per reaction) in assay buffer (50 mM HEPES, pH 7.5 with KOH, 5 mM MgCl2, 0.15 M KCl, 0.015 M NaCl, 1 mM DTT) with 0.1 mM CaCl2 and 1 μM calmodulin (New England Biolabs, MA). [T. J. Lukas, S. Mirzoeva, U. Slomczynska and D. M. Watterson, J. Med. Chem. 42 (1999) 910-9.] Reactions were initiated by addition of MLCK protein and incubated for 20 min at 25° C. Reactions were spotted onto P-81 paper (Whatman, Clifton, N.J.), washed with 75 mM H3PO4 and 95% EtOH, and quantified by scintillation counting in EcoScintO (National Diagnostics, Atlanta, Ga.). Testing of compounds for kinase inhibitory activity against the structurally and functionally related kinases death-associated protein kinase (DAPK) and the signal transduction pathway relevant kinases protein kinase A (PKA) and protein kinase C (PKC) was performed as described by using the corresponding peptide substrates and assay conditions. [S. Mirzoeva, A. Sawkar, M. Zasadzki, L. Guo, A. V. Velentza, V. Dunlap, J. J. Bourguignon, H. Ramstrom, J. Haiech, L. J. Van Eldik and D. M. Watterson, J. Med. Chem 45 (2002) 563-6; A. M. Schumacher, J. P. Schavocky, A. V. Velentza, S. Mirzoeva and D. M. Watterson, Biochemistry 43 (2004) 8116-24; A. V. Velentza, A. M. Schumacher and D. M. Watterson, Pharmacol Ther 93 (2002) 217-24; A. V. Velentza, A. M. Schumacher, C. Weiss, M. Egli and D. M. Watterson, J. Biol. Chem. 276 (2001) 38956-65; D. M. Watterson, S. Mirzoeva, L. Guo, A. Whyte, J. J. Bourguignon, M. Hibert, J. Haiech and L. J. Van Eldik, Neurochem Int. 39 (2001) 459-68.]

[5] = In vitro metabolic stability with human liver microsomes; type: in vitro ADME; conditions: 5 μM compound, 10 and 30 min at 37° C., HPLC
Protocol: A standard screening of compounds for in vitro metabolic stability with human liver microsomes was done at 5 μM of compound using commercially available, calibrated human liver microsomes (BD Biosciences, Bedford, Mass.) and an NADPH-regenerating system. [D. Ackley, K. Rockich and T. Baker. in (Caldwell, Z. Y. a. G. W., ed.) Methods in pharmacology and toxicology optimization in drug discovery: in vitro methods, Humana Press Inc., Totowa, N.J. 2004, pp. 151-62.] Briefly, reaction mixtures were prepared in 0.1 M potassium phosphate buffer and contained 1.6 mg/ml microsomal protein, 5 μM test compound, 1.3 mM NADPH, 3.3 mM MgCl2, 0.4 U/ml glucose-6-phosphate dehydrogenase, and 3.3 mM glucose-6-phosphate in a total volume of 300 μl. Reactions were incubated for 10 and 30 minutes at 37° C. and halted by addition of cold acetonitrile. The mixture was centrifuged at 10000 g for 10 min and 20 μl of supernatant was analyzed by HPLC to quantify the percentage of the initial amount of compound remaining after incubation. The HPLC mobile phase consisted of 5% acetonitrile in water as reagent A and 80% acetonitrile/0.08% formic acid/water as reagent B at a flow rate of 0.2 ml/min. The gradient consisted of the following variations in % B: begin with % B at 0 for 2 min, 0-100% from 2 to 22 min, isocratic until 24 min. Peak quantification was done based upon absorption measurements at 260 nm relative to a standard curve obtained by serial dilutions of known amounts of compounds.

[6] = test system: LPS induced vascular leak in the lungs; test: Bacterial toxin (LPS)-induced pulmonary vascular leak, Evans blue dye in lung; type: in vivo; conditions: mice, LPS 10 mg/kg i.p., compound 5 mg/kg i.p., 24 h
Protocol: Adult (20-30 g) female C57B1/6 mice were obtained from a commercial vendor (Harlan, Indianapolis, Ind.). The generation and characterization of the MLCK210 KO mouse strain was previously described. [M. S. Wainwright, J. Rossi, J. Schavocky, S. Crawford, D. Steinhorn, […]. Jia, […]. Van Eldik and D. M. Watterson, Proc. Natl. Acad. Sci. USA 100 (2003) 6233-8.] All animal procedures were performed in accordance with relevant National Institutes of Health guidelines and approved by the Institutional Animal Care and Use Committee of Northwestern University. Pulmonary vascular leak after injurious endotoxin exposure was examined essentially as previously described, above, except using the increase in Evans blue dye in the lung as a quantitative end point. […] The levels of Evans blue in the serum and the tissue supernatant were then determined by measuring the absorbance at 620 nm. The reading at 620 nm (E620) was corrected for the presence of contaminating heme pigments in the samples by measuring the absorbance at 740 nm (E740) and using the correction formula E620=E620-(1.426×E740+0.030). The amount of Evans blue in the samples was then calculated using a standard curve obtained with known amounts of Evans blue. The results were normalized by considering the mean level of Evans blue measured in LPS-treated mice as 100%.

death-associated protein kinase (DAPK), sequence (P53355 1-285 limits assumed, species assumed): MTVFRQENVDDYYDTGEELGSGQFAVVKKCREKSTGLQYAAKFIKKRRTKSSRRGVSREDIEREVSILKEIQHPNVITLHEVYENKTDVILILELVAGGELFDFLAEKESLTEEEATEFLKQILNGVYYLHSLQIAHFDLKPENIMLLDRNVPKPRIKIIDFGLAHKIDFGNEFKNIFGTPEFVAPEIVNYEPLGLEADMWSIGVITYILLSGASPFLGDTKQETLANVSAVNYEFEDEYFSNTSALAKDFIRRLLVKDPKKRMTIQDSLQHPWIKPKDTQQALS
MLCK, sequence (Q15746 whole entry): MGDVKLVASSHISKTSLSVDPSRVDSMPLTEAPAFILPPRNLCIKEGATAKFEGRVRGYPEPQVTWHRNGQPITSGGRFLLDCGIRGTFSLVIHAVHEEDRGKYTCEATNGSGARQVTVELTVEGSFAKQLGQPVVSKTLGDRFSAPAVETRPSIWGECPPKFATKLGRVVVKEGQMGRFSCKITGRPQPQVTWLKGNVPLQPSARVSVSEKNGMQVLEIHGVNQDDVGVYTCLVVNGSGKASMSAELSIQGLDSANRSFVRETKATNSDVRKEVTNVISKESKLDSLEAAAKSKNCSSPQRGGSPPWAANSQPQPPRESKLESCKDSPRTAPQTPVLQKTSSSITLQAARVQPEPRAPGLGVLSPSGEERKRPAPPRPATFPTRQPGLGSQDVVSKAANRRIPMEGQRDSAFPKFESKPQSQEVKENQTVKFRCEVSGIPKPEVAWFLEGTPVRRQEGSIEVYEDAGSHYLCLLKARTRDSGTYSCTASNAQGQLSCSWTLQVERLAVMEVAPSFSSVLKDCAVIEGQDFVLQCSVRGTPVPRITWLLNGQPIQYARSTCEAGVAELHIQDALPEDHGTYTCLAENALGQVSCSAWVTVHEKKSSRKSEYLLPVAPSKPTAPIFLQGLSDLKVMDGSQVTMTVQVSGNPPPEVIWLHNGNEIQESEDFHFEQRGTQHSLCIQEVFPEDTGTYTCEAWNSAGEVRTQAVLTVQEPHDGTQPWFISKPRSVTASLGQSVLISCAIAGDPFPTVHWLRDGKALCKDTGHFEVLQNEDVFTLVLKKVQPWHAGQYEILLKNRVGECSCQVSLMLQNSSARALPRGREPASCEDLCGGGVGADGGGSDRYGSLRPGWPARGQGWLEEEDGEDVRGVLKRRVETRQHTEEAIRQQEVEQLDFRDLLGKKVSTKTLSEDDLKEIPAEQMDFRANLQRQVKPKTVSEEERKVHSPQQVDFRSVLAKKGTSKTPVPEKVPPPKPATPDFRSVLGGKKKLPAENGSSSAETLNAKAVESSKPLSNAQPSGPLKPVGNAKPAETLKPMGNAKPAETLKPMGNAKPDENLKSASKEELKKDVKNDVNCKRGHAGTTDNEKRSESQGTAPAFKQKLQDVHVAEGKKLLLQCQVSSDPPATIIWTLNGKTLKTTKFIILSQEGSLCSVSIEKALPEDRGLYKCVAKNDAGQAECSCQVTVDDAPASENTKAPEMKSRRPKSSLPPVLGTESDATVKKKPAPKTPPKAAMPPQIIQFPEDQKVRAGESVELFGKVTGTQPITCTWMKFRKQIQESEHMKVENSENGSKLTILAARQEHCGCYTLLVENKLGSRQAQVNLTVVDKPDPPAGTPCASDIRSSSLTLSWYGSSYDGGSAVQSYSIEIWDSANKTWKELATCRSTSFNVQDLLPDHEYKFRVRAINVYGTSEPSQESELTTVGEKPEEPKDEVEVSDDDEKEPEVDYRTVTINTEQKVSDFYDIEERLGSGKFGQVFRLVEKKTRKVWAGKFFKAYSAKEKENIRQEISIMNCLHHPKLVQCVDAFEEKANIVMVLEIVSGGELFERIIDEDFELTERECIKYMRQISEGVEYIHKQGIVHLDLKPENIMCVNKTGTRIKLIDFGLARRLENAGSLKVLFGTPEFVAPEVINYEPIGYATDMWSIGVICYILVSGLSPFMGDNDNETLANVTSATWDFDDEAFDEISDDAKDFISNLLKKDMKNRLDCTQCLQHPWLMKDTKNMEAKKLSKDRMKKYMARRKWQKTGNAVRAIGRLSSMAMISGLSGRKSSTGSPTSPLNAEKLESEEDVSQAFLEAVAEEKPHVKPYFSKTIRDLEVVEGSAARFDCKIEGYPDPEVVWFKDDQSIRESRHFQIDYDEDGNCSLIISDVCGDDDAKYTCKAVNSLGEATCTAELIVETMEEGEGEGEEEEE

For `N=c1ccc(-c2ccccc2)nn1CCCCCCCCCCC(=O)NCCc1c[nH]cn1` [Compound 5, N-(2-(1H-imidazol-4-yl)ethyl)-11-(6-imino-3-phenylpyridazin-1(6H)-yl)undecanamide], the IC50 [1] was 6.3 µM, the “selectivity for MLCK over related protein kinases (in words)” value (“selectivity for MLCK … (in words)” for short) [1] was “more selective than compounds 1 or 2” and the IC50 [2] was greater than 1000 µM. It also gave an IC50 [3] of 271 µM and an IC50 [4] of 166 µM.

With `CN1CCCC1CCNC(=O)CCCCCCCCCCn1nc(-c2ccccc2)ccc1=N` (stereo not drawn) [Compound 6, 11-(6-imino-3-phenylpyridazin-1(6H)-yl)-N-(2-(1-methylpyrrolidin-2-yl)ethyl)-undecanamide] the IC50 [1] was 13.3 µM, the “selectivity for MLCK … (in words)” value [1] was “highly selective for MLCK; also recorded: selective for MLCK compared to closely related protein kinases” and the “selectivity for MLCK versus DAPK” value ([1]; ratio from Table 1) was “over 76 times”. For the same compound, the IC50 [2] was greater than 1000 µM, the IC50 [3] was greater than 1000 µM and the “amount of compound remaining after incubation with human liver microsomes” value (“amount of compound remaining” below) [5] was “stable”. For the same compound, the “amount of compound remaining” value ([5]; listed as compound 6) was “did not decrease up to 30 minutes of incubation; also recorded: The majority of compound 6 (filled bar) remains after 10 and 30 min incubation times”, the “level of Evans blue dye in lung tissue (pulmonary vascular leak)” value [6] was “efficacious in vivo to reduce LPS-induced pulmonary vascular leak; also recorded: significantly lower (*p<0.05) levels of dye” and the IC50 [4] was 414 µM.

For `N=c1ccc(-c2ccccc2)nn1CCCCCCCCCCC(=O)NCCC1CCCC1` [Compound 10, N-(2-cyclopentylethyl)-11-(6-imino-3-phenylpyridazin-1(6H)-yl)undecanamide], the IC50 [1] was 2.5 µM, the “selectivity for MLCK … (in words)” value [1] was “selective for MLCK” and the “MLCK inhibitory activity relative to parent compound (in words)” value ([1]; in vitro, versus compound 6) was “more active in vitro than the parent compound 6”. For the same compound, the IC50 [2] was greater than 1000 µM, the IC50 [3] was 206 µM and the “amount of compound remaining” value [5] was “significantly lower than compound 6; also recorded: significantly different (***p<0.001) at 10 and 30 min compared to zero min”. The IC50 [4] was 68 µM.
